Laboratory results: patent US12479856B2, “Pharmaceutical compounds for the treatment of complement mediated disorders” (Achillion Pharmaceuticals, Inc., priority 2019, dated 2025)

target: T1, Human complement C1s enzyme (Homo sapiens, UniProt P09871); assay: Human C1s Enzyme Assay; type: biochemical; settings: Table 1; C1s purified from human serum, 1.16 nM; substrate Z-L-Lys-SBzl; read-out: C1s Protease Activity
T1 construct: purified from human serum, Complement Technology, Inc; purchased Complement Technology, Inc; host or cells: human serum (plasma-derived natural protein)
T1 sequence (P09871 438-688 limits assumed): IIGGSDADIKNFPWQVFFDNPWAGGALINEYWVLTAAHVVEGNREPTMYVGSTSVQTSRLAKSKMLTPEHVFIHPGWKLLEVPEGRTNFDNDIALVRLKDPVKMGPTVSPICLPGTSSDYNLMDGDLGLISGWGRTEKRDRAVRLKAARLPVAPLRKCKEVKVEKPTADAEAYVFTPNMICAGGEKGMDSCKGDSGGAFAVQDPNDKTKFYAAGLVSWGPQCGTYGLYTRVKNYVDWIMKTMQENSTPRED
T1 sequence (P09871 16-437 partner limits assumed): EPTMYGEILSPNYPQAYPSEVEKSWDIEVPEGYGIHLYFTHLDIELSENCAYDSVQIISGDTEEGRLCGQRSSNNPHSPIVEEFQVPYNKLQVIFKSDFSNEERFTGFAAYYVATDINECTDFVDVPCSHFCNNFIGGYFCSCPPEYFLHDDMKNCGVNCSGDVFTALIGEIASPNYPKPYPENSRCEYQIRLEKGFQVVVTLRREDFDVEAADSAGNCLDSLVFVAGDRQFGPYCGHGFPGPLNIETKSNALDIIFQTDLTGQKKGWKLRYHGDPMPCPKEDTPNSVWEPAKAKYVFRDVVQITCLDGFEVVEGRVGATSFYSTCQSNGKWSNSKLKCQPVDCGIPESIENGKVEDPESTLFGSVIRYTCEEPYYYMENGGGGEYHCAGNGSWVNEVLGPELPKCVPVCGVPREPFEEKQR
Procedure: Example 4. Human C1s Enzyme Assay
Human complement C1s enzyme (purified from human serum, Complement Technology, Inc.) at 1.16 nM final concentration is incubated with test compound at various concentrations for 5 min at room temperature in 50 mM Tris, 1 M NaCl, pH 7.5. A synthetic substrate Z-L-Lys-SBzl and DTNB (Ellman's reagent) are added to final concentrations of 100 μM each. Absorbance at 405 nm (A405) is recorded at 30 second intervals for 30 min using a microplate spectrophotometer. IC50 values are calculated by nonlinear regression of complement C1s reaction rates as a function of test compound concentration.

Row | Compound | IC50 [nM]
1 | Cc1ccc(Oc2ccc(C(=O)NCC(=O)N3CC4(C[C@H]3C(=O)NCc3cc(C(=N)N)cs3)OCCO4)cc2)cc1 [Compound 1, (8S)—N-[(4-carbamimidoylthiophen-2-yl)methyl]-7-(2-{[4-(4-methylphenoxy)phenyl]formamido}acetyl)-1,4-dioxa-7-azaspiro[4.4]nonane-8-carboxamide] | < 100
2 | N=C(N)c1csc(CNC(=O)[C@@H]2CC3(CN2C(=O)CNC(=O)c2ccc(Oc4ccccc4)cc2)OCCO3)c1 [Compound 2, (8S)—N-[(4-carbamimidoylthiophen-2-yl)methyl]-7-{2-[(4-phenoxyphenyl)formamido]acetyl}-1,4-dioxa-7-azaspiro[4.4]nonane-8-carboxamide] | < 100
3 | C[C@@]1(C(=O)NCc2cc(C(=N)N)cs2)CCCN1C(=O)CNC(=O)c1ccc(Oc2ccccc2)cc1 [Compound 3, (2S)—N-[(4-Carbamimidoylthiophen-2-yl)methyl]-2-methyl-1-{2-[(4-phenoxyphenyl)formamido]acetyl}pyrrolidine-2-carboxamide] | < 100
4 | N=C(N)c1csc(CNC(=O)[C@@H]2CSCN2C(=O)CNC(=O)c2ccc(Oc3ccccc3)cc2)c1 [Compound 4, (4R)—N-[(4-Carbamimidoylthiophen-2-yl)methyl]-3-{2-[(4-phenoxyphenyl)formamido]acetyl}-1,3-thiazolidine-4-carboxamide] | < 100
5 | N=C(N)c1csc(CNC(=O)[C@H]2CCCN2C(=O)CNC(=O)c2ccc(Oc3ccccc3)cc2)c1 [Compound 5, (2R)—N-[(4-Carbamimidoylthiophen-2-yl)methyl]-1-{2-[(4-phenoxyphenyl)-formamido]acetyl}pyrrolidine-2-carboxamide] | > 1000
6 | C=C1C[C@@H](C(=O)NCc2cc(C(=N)N)cs2)N(C(=O)CNC(=O)c2ccc(Oc3ccccc3)cc2)C1 [Compound 6, (2S)—N-[(4-Carbamimidoylthiophen-2-yl)methyl]-4-methylidene-1-{2-[(4-phenoxyphenyl)formamido]acetyl}pyrrolidine-2-carboxamide] | < 100
7 | N=C(N)c1csc(CNC(=O)C2N(C(=O)CNC(=O)c3ccc(Oc4ccccc4)cc3)CC23CCC3)c1 (stereo not drawn) [Compound 7, N-[(4-Carbamimidoylthiophen-2-yl)methyl]-2-{2-[(4-phenoxyphenyl)formamido]acetyl}-2-azaspiro[3.3]heptane-1-carboxamide] | < 100
8 | C[C@@]12C[C@@H](C(=O)NCc3cc(C(=N)N)cs3)N(C(=O)CNC(=O)c3ccc(Oc4ccccc4)cc3)[C@@H]1C2 [Compound 8, (1R,3S,5R)—N-[(4-Carbamimidoylthiophen-2-yl)methyl]-5-methyl-2-{2-[(4-phenoxyphenyl)formamido]acetyl}-2-azabicyclo[3.1.0]hexane-3-carboxamide] | < 100
9 | C[C@@]12C[C@@H]1N(C(=O)CNC(=O)c1ccc(Oc3ccccc3)cc1)[C@H](C(=O)NCc1cc(C(=N)N)cs1)C2 [Compound 9, (1S,3S,5S)—N-[(4-Carbamimidoylthiophen-2-yl)methyl]-5-methyl-2-{2-[(4-phenoxyphenyl)formamido]acetyl}-2-azabicyclo[3.1.0]hexane-3-carboxamide] | < 100
10 | N=C(N)c1csc(CNC(=O)C2CC3(CC3)CN2C(=O)CNC(=O)c2ccc(Oc3ccccc3)cc2)c1 (stereo not drawn) [Compound 10, N-[(4-Carbamimidoylthiophen-2-yl)methyl]-5-{2-[(4-phenoxyphenyl)formamido]acetyl}-5-azaspiro[2.4]heptane-6-carboxamide] | 100 to 1000
11 | N=C(N)c1csc(CNC(=O)C2CC3(CCC3)CN2C(=O)CNC(=O)c2ccc(Oc3ccccc3)cc2)c1 (stereo not drawn) [Compound 11, N-[(4-Carbamimidoylthiophen-2-yl)methyl]-6-{2-[(4-phenoxyphenyl)formamido]acetyl}-6-azaspiro[3.4]octane-7-carboxamide] | < 100

same assay, conditions: Table 3; C1s purified from human serum, 1.16 nM; substrate Z-L-Lys-SBzl; read-out: C1s Protease Activity

Row | Compound | IC50 [nM]
12 | N=C(N)c1csc(CNC(=O)C2C3CCC(C3)N2C(=O)CNC(=O)c2ccc(Oc3ccccc3)cc2)c1 (stereo in doubt) [Compound 96, (1R,3R,4S)-N-((4-carbamimidoylthiophen-2-yl)methyl)-2-((4-phenoxybenzoyl)glycyl)-2-azabicyclo[2.2.1]heptane-3-carboxamide] | < 100
